Measured values from patent US7622469B2, “2,4-diamino-1,3,5-triazine derivatives” (Hamari Chemicals, Ltd., priority 2002, dated 2009).
Values after ≈ are worked out from the molar mass of the structure shown.

Experiments:
MRSA 97-115 [1] = assay: Bactericidal activity test (MBC, phenol coefficient measuring method); assay type: cell-based, methicillin-resistant Staphylococcus aureus
Experimental: (§1) As a test bacterium, the same bacteria species as those of the antibacterial activity test were used; as a medium to be used, a SCD medium (manufactured by Eiken Chemical Co., Ltd.) was used for pre-culture medium; and a heart infusion bouillon medium (manufactured by Eiken Chemical Co., Ltd.) was used as a medium for growing a live bacterium in a test solution after bactericidal treatment. One platinum loop of a test bacterium was inoculated into 20 ml of a medium, and static culture was carried out at 37° C. for 18 to 20 hours, and the cells were adjusted with a sterilized physiological saline to 1×10^7/ml, which was used as a test bacterium solution.
(§2) Then, a solution of each compound in methanol was subjected to ½ stepwise dilution with sterilized water, each 5 ml was dispensed into a test tube, 0.5 ml of the previously prepared test bacterium solution was added thereto, and the mixture was blended well. After 1 minute, 3 minutes and 5 minutes has passed, 5 μl of the test solution was collected and inoculated into 2 ml of a heart infusion bouillon medium, this was cultured at 37° C. for 40 to 48 hours, and the presence or absence of growth of a bacterium was determined. A test was performed three times, a minimum concentration at which growth of a bacterium was not recognized two or more times was adopted as a minimal bactericidal concentration (MBC value).
(§3) Numerical values in Tables represent MBC expressed in μg/ml unit.

E. coli NIHJ JC-2 [2] = assay: as above; assay type: cell-based
Experimental: as §1, §2, §3

P. aeruginosa PAO-1 [3] = assay: as above; assay type: cell-based
Experimental: as §1, §2, §3

S. aureus 209PJC [4] = assay: as above; assay type: cell-based
Experimental: as §1, §2, §3

MRSA 97-115 [5] = assay: Antibacterial activity test (MIC); assay type: cell-based, methicillin-resistant Staphylococcus aureus; settings: Mueller-Hinton Broth, 37° C., 20 to 24 hours
Outline: (§4)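 Broth dilution MIC per Japanese Society of Chemotherapy method, in Mueller-Hinton Broth with inoculum of 10^5/ml from 16–20 h cultures at 37° C. Compound (methanol-dissolved) tested at 100 μg/ml and 2^n-fold (n=−10 to 1) twofold steps; MIC expressed in μg/ml.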

E. coli NIHJ JC-2 [6] = assay: Antibacterial activity test (MIC); assay type: cell-based; settings: Mueller-Hinton Broth, 37° C., 20 to 24 hours
Outline: as §4

P. aeruginosa PAO-1 [7] = assay: Antibacterial activity test (MIC); assay type: cell-based; settings: Mueller-Hinton Broth, 37° C., 20 to 24 hours
Outline: as §4

S. aureus 209PJC [8] = assay: Antibacterial activity test (MIC); assay type: cell-based; settings: Mueller-Hinton Broth, 37° C., 20 to 24 hours
Outline: as §4

SMILES	minimal bactericidal concentration (MBC) (MRSA 97-115 [1]; 1 min) [mg/L]	minimal bactericidal concentration (MBC) (MRSA 97-115 [1]; 3 min) [mg/L]	minimal bactericidal concentration (MBC) (MRSA 97-115 [1]; 5 min) [mg/L]	minimal bactericidal concentration (MBC) (E. coli NIHJ JC-2 [2]; 1 min) [mg/L]	minimal bactericidal concentration (MBC) (E. coli NIHJ JC-2 [2]; 3 min) [mg/L]	minimal bactericidal concentration (MBC) (E. coli NIHJ JC-2 [2]; 5 min) [mg/L]	minimal bactericidal concentration (MBC) (P. aeruginosa PAO-1 [3]; 1 min) [mg/L]	minimal bactericidal concentration (MBC) (P. aeruginosa PAO-1 [3]; 3 min) [mg/L]	minimal bactericidal concentration (MBC) (P. aeruginosa PAO-1 [3]; 5 min) [mg/L]	minimal bactericidal concentration (MBC) (S. aureus 209PJC [4]; 1 min) [mg/L]	minimal bactericidal concentration (MBC) (S. aureus 209PJC [4]; 3 min) [mg/L]	minimal bactericidal concentration (MBC) (S. aureus 209PJC [4]; 5 min) [mg/L]	minimal inhibitory concentration (MIC) (MRSA 97-115 [5]) [mg/L]	minimal inhibitory concentration (MIC) (E. coli NIHJ JC-2 [6]) [mg/L]	minimal inhibitory concentration (MIC) (P. aeruginosa PAO-1 [7]) [mg/L]	minimal inhibitory concentration (MIC) (S. aureus 209PJC [8]) [mg/L]
CCCCCCCCNC1=NC(C)(C)N=C(NCc2ccc(C)cc2)N1 [compound 37]	25 (≈ 69.9 µM)	25 (≈ 69.9 µM)	12.5 (≈ 35 µM)	12.5 (≈ 35 µM)	6.3 (≈ 17.6 µM)	3.1 (≈ 8.67 µM)	3.1 (≈ 8.67 µM)	3.1 (≈ 8.67 µM)	3.1 (≈ 8.67 µM)	12.5 (≈ 35 µM)	6.3 (≈ 17.6 µM)	6.3 (≈ 17.6 µM)	1.6 (≈ 4.47 µM)	12.5 (≈ 35 µM)	25 (≈ 69.9 µM)	0.8 (≈ 2.24 µM)
Br.CCCCCCCCCNC1=NC(C)(C)N=C(NCc2ccccc2)N1 [compound 49]	25	12.5	12.5	12.5	6.3	3.1	12.5	3.1	3.1	12.5	6.3	6.3	0.8	12.5	25	0.4
CC(=O)O.CCCCCCCCNC1=NC(C)(C)N=C(NCC2CCCCC2)N1 [compound 65]	25	12.5	12.5	3.1	1.6	1.6	3.1	1.6	1.6	12.5	3.1	3.1	0.8	25	50	0.8
CCCCCCCCCC1N=C(N)N=C(N)N1c1ccc(C(C)(C)C)cc1.Cl (stereo not shown) [compound 22]	25	25	12.5	6.3	6.3	6.3	12.5	3.1	3.1	12.5	6.3	6.3	0.8	25	25	0.8
CC(=O)O.CCCCCCCCNC1=NC(C)(C)N=C(Nc2cnc3ccccc3c2)N1 [compound 82]	50	25	25	6.3	6.3	3.1	12.5	12.5	6.3	12.5	6.3	6.3	1.6	25	50	0.8
CCCCCCCCCCCCC1N=C(N)NC(NCCc2ccc(OC)cc2)=N1.Cl (racemic) [15(1)]	25	12.5	6.3	6.3	3.1	1.6	6.3	3.1	3.1	12.5	3.1	3.1	1.6	25	50	0.4
CCCCCCCCCCNC1=NC(C)(C)N=C(NCCc2ccc(OC)cc2)N1.Cl [compound 4]	25	6.3	6.3	3.1	1.6	1.6	3.1	3.1	1.6	50	12.5	6.3	0.8	50	50	0.4
